Values of other authors as cited in PMC2804221 (The Journal of Biological Chemistry, 2009).

**Q.** Which IC50 (isolated ECD of GLP-1R) does the source give for “Exendin-4(9–39): truncated form of exendin-4, and a competitive antagonist” here?
**A.** The IC50 was 6 nM.

**Q.** What about the “mode of action at GLP-1R” value (GLP-1R) of the same substance?
**A.** Its value is “competitive antagonist”.
